In patent publication US11400081B2, “Compounds” (The University of Sheffield, priority 2017, dated 2022):
Where a name gives a salt, the structure may show the parent alone. No end group written: not given here.

Molecular target: T1, AM2 receptor (CALCRL+RAMP3) (Homo sapiens, UniProt O60896+Q16602)
T1 construct: host or cells: 1321N1
Test: AM2 receptor inhibition, LANCE TR-FRET cAMP agonist-antagonist competition assay
Assay type: cell-based
Details: inhibition of AM induced cAMP activation; 1321N1 cells transfected with CALCRL+RAMP3; read-out: AM2 pIC50 (converted)

T1 sequence (Q16602 23-461): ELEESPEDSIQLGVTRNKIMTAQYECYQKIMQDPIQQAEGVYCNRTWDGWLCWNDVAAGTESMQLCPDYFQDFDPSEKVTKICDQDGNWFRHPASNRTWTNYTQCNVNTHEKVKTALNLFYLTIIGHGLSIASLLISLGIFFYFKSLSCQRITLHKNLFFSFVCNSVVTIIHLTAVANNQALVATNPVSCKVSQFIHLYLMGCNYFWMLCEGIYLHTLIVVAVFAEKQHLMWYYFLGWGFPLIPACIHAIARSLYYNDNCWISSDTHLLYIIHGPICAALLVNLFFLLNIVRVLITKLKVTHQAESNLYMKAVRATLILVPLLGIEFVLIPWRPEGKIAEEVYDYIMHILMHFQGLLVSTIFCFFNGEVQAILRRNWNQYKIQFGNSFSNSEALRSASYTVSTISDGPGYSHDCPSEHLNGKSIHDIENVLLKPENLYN
T1 sequence (O60896 24-148): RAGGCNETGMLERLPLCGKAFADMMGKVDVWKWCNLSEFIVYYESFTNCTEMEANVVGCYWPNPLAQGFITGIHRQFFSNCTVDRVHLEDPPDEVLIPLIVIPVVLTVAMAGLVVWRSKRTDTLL

Row | Compound | IC50 [nM]
1 | CC(C)(C)C(=O)N(CC(=O)Nc1ccc2c(c1)CC1(C2)C(=O)Nc2ncccc21)Cc1ccccc1CN1CC(F)(F)C1 (stereo not drawn) [Example 11, N-(2-((3,3-Difluoroazetidin-1-yl)methyl)benzyl)-N-(2-oxo-2-((2′-oxo-1,1′,2′,3-tetrahydrospiro[indene-2,3′-pyrrolo[2,3-b]pyridin]-5-yl)amino)ethyl)pivalamide] | 398
2 | CC(C)(C)C(=O)N(CC(=O)Nc1ccc2c(c1)CC1(C2)C(=O)Nc2ncccc21)Cc1ccccc1CNCC1CC1 (stereo not drawn) [Example 8, N-(2-(((Cyclopropylmethyl)amino)methyl)benzyl)-N-(2-oxo-2-((2′-oxo-1,1′,2′,3-tetrahydrospiro[indene-2,3′-pyrrolo[2,3-b]pyridine]-5-yl)amino)ethyl)pivalamide] | 166
3 | CNCc1ccccc1CN(C(=O)C(C)(C)C)[C@@H](C)C(=O)Nc1ccc2c(c1)CC1(C2)C(=O)Nc2ncccc21 (stereo partly drawn) [Example 34, N-(2-((Methylamino)methyl)benzyl)-N-((2S)-1-oxo-1-((2′-oxo-1,1′,2′,3-tetrahydrospiro[indene-2,3′-pyrrolo[2,3-b]pyridin]-5-yl)amino)propan-2-yl)pivalamide] | 12.3
4 | O=C(CN(Cc1ccccc1CN1CCC1)C(=O)c1ccccn1)Nc1ccc2c(c1)CC1(C2)C(=O)Nc2ncccc21 (stereo not drawn) [Example 52, N-(2-(Azetidin-1-ylmethyl)benzyl)-N-(2-oxo-2-((2′-oxo-1,1′,2,3-tetrahydrospiro[indene-2,3′-pyrrolo[2,3-b]pyridin]-5-yl)amino)ethyl)picolinamide] | 46.8
5 | CN(C)CCCNCc1ccccc1CN(CC(=O)Nc1ccc2c(c1)CC1(C2)C(=O)Nc2ncccc21)C(=O)C(C)(C)C (stereo not drawn) [Example 12, N-(2-(((3-(Dimethylamino)propyl)amino)methyl)benzyl)-N-(2-oxo-2-((2′-oxo-1,1′,2′,3-tetrahydrospiro[indene-2,3′-pyrrolo[2,3-b]pyridin]-5-yl)amino)ethyl)pivalamide] | 186
6 | CC(C)(C)C(=O)N(CC(=O)Nc1ccc2c(c1)CC1(C2)C(=O)Nc2ncccc21)Cc1ccccc1CN1CCCC1 (stereo not drawn) [Example 4, N-(2-Oxo-2-((2′-oxo-1,1′,2′,3-tetrahydrospiro[indene-2,3′-pyrrolo[2,3-b]pyridine]-5-yl)amino)ethyl)-N-(2-(pyrrolidin-1-ylmethyl)benzyl)pivalamide] | 60.3
7 | CC(C)(C)C(=O)N(CC(=O)Nc1ccc2c(c1)CC1(C2)C(=O)Nc2ncccc21)Cc1ccccc1CNCC(F)(F)F (stereo not drawn) [Example 6, N-(2-Oxo-2-((2′-oxo-1,1′,2′,3-tetrahydrospiro[indene-2,3′-pyrrolo[2,3-b]pyridine]-5-yl)amino)ethyl)-N-(2-(((2,2,2-trifluoroethyl)amino)methyl)benzyl)pivalamide] | 513
8 | CNCc1cc(F)c(F)cc1CN(CC(=O)Nc1ccc2c(c1)CC1(C2)C(=O)Nc2ncccc21)C(=O)C(C)(C)C (stereo not drawn) [Example 37, N-(4,5-difluoro-2-((methylamino)methyl)benzyl)-N-(2-oxo-2-((2′-oxo-1,1′,2′,3-tetrahydrospiro[indene-2,3′-pyrrolo[2,3-b]pyridin]-5-yl)amino)ethyl)pivalamide] | 145
9 | CC(C)(C)OC(=O)N(CC(=O)Nc1ccc2c(c1)CC1(C2)C(=O)Nc2ncccc21)Cc1ccccc1CN1CCC1 (stereo not drawn) [Example 44, tert-Butyl 2-(azetidin-1-ylmethyl)benzyl(2-oxo-2-((2′-oxo-1,1′,2′,3-tetrahydrospiro[indene-2,3′-pyrrolo[2,3-b]pyridin]-5-yl)amino)ethyl)carbamate] | 74.1
10 | CC(C)(C)C(=O)N(CC(=O)Nc1ccc2c(c1)CC1(C2)C(=O)Nc2ncccc21)Cc1ccccc1CN1CC(F)C1 (stereo not drawn) [Example 10, N-(2-((3-Fluoroazetidin-1-yl)methyl)benzyl)-N-(2-oxo-2-((2′-oxo-1,1′,2′,3-tetrahydrospiro[indene-2,3′-pyrrolo[2,3-b]pyridin]-5-yl)amino)ethyl)pivalamide] | 91.2

Second part, the compound after the results:

Row | IC50 [nM] | Compound
11 | 24 | CNCc1ccccc1CN(CC(=O)Nc1cc2c(cn1)CC1(C2)C(=O)Nc2ncccc21)C(=O)C(C)(C)C (stereo not drawn) [Example 103, N-(2-((Methylamino)methyl)benzyl)-N-(2-oxo-2-((2′-oxo-1′,2′,5,7-tetrahydrospiro[cyclopenta[c]pyridine-6,3′-pyrrolo[2,3-b]pyridin]-3-yl)amino)ethyl)pivalamide]
12 | 2.45 | CNCc1ccccc1CN(CC(=O)Nc1ccc2c(c1)CC1(C2)C(=O)Nc2ncccc21)C(=O)C1CCN(C(=O)N(C)C)CC1 (stereo not drawn) [Example 71, N1,N1-dimethyl-N4-(2-((methylamino)methyl)benzyl)-N4-(2-oxo-2-((2′-oxo-1,1′,2′,3-tetrahydrospiro[indene-2,3′-pyrrolo[2,3-b]pyridin]-5-yl)amino)ethyl)piperidine-1,4-dicarboxamide 2,2,2-trifluoroacetate]
13 | 22.4 | CNCc1ccccc1CN(CC(=O)Nc1ccc2c(c1)CC1(C2)C(=O)Nc2ncccc21)C(=O)C1CCN(C(C)=O)CC1 (stereo not drawn) [Example 79, 1-Acetyl-N-(2-((methylamino)methyl)benzyl)-N-(2-oxo-2-((2′-oxo-1,1′,2′,3-tetrahydrospiro[indene-2,3′-pyrrolo[2,3-b]pyridin]-5-yl)amino)ethyl)piperidine-4-carboxamide]
14 | 148 | CNCc1ccccc1CN(CC(=O)Nc1ccc2c(c1)CC1(C2)C(=O)Nc2ncccc21)C(=O)C1CCNCC1 (stereo not drawn) [Example 88, N-(2-((Methylamino)methyl)benzyl)-N-(2-oxo-2-((2′-oxo-1,1′,2′,3-tetrahydrospiro[indene-2,3′-pyrrolo[2,3-b]pyridin]-5-yl)amino)ethyl)piperidine-4-carboxamide]
15 | 21.4 | CCC1(C(=O)N(CC(=O)Nc2ccc3c(c2)C[C@@]2(C3)C(=O)Nc3ncccc32)Cc2ccccc2CNC)CCOCC1 [Example 98, 4-Ethyl-N-[[2-(methylaminomethyl)phenyl]methyl]-N-[2-oxo-2-[[(3R)-2-oxospiro[1H-pyrrolo [2,3-b]pyridine-3,2′-indane]-5′-yl]amino]ethyl]tetrahydropyran-4-carboxamide 2,2,2 trifluoroacetate]
16 | 24 | CNCc1ccccc1CN(CC(=O)Nc1ccc2c(c1)CC1(C2)C(=O)Nc2ncccc21)C(=O)C(C)(C)c1ccc(CN2CCNCC2)cc1 (stereo not drawn) [Example 91, 2-Methyl-N-(2-((methylamino)methyl)benzyl)-N-(2-oxo-2-((2′-oxo-1,1′,2′,3-tetrahydrospiro[indene-2,3′-pyrrolo[2,3-b]pyridin]-5-yl)amino)ethyl)-2-(4-(piperazin-1-ylmethyl)phenyl)propanamide]
17 | 85.1 | CNCc1ccccc1CN(CC(=O)Nc1ccc2c(c1)CC1(C2)C(=O)Nc2ncccc21)C(=O)C1CCCCO1 (stereo not drawn) [Example 64, N-(2-((Methylamino)methyl)benzyl)-N-(2-oxo-2-((2′-oxo-1,1′,2′,3-tetrahydrospiro[indene-2,3′-pyrrolo[2,3-b]pyridin]-5-yl)amino)ethyl)tetrahydro-2H-pyran-2-carboxamide]

Tested on: human pancreatic cancer cells
Test: not given
Details: local injection directly into tumours, pancreatic cancer model; cited from earlier work

Row | Compound | tumour size compared to controls
18 | AM22-52: "the AM peptide antagonist (AM22-52)"; "peptide and antibody AM2 receptor inhibitors are known such as AM22-52" (TVQKLAHQIYQFTDKDKDNVAPRSKISPQGY; ends and bridges not checked; UniProt P35318 116-146, looked up, fragment) | reduced tumour size significantly
